Data published in patent US20110152267A1, “Compositions and Methods for Treating Hyperproliferative Disorders” (Texas Tech University System, priority 2009, published 2011).

Columns and labels:
Type in all cases: cell-based, human
[1] = tested on: RPMI-8226 Multiple Myeloma cell line; assay: DIMSCAN cytotoxicity, fenretinide + L-threo-sphinganines 3:1 (Example B2); details: 96 h
Method: (§1) Cytotoxicity Assay—Once again, cytotoxicity is determined using the DIMSCAN assay system (R. Proffitt et al., Cytometry 24, 204-213 (1996); T. Frgala et al., Mol Cancer Ther. 6:886-97, 2007). The system employs digital imaging microscopy to quantify viable cells, which selectively accumulate fluorescein diacetate to become brightly fluorescent. The system is capable of measuring cytotoxicity over a 4-5 log dynamic range by quenching the residual fluorescence of dead and dying cells with eosin Y and quantifying the total fluorescence of viable cells using digital thresholding. Measured fluorescence is directly proportionate to the number of viable cells. A comparison of the total fluorescence of a drug-treated cell population to the fluorescence of a similar number of untreated cells yields a survival fraction. In brief, 2000 to 10,000 cells/well (depending on size and growth rates) are replicate plated into 60 wells of a 96-well tissue culture plate in 0.1 mL of whole medium and allowed to attach overnight. Drug(s) are then added in 0.05 mL of whole medium to the final concentrations indicated. Drugs (fenretinide, and various chain length L-threo-sphinganines) were tested both as single agents and in a 3:1 ratio of fenretinide:sphinganine. C18-L-threo-sphinganine, or “safingol,” was also tested and results shown for reference. There are 12 wells treated per drug concentration. Twelve wells receive drug vehicle-only to the appropriate final concentration and serve as controls for the plate. Cells are incubated for 96 hours at 37° C. in ambient air with 5% CO2. Fluorescein diacetate is then added to each well in 0.05 mL media to a final concentration of 8 microgram/mL. Cells are incubated for a further 15 minutes at 37° C. and 0.03 mL of 0.5% eosin Y is added to each well. Total fluorescence of viable cells is then measured by digital imaging microscopy. Results were graphed as the ratio of the fluoresecence of drug-treated wells to non-drug treated control wells (i.e., Survival Fraction). All tests were performed at least twice. Representative results are shown.
(§2) The Combination Index (CI) is a term to describe mathematical modeling of the pharmacologic effects on cytotoxicity (cell death) of two drugs in combination based. Cytotoxic “synergy” is defined as a cell death affect which is greater than would be expected from a simple product of the single agent cytotoxicities alone (i.e. an “additive” effect). By Chou-Talalay analysis, a CI<0.9 on a Fraction Affected (“Fa”, i.e. fraction of cells killed) indicates synergy, with smaller numbers indicating greater synergy; a CI of 0.9-1.1 signifies an additive or near-additive effect; and a CI>1.1 means the drug combination is antagonistic.
Fenretinide and L-threo-sphinganines tested in human Multiple Myeloma (a cancer of the blood and bone marrow) cell line, RPMI-8226.

[2] = tested on: U-118 Glioblastoma cell line; assay: DIMSCAN cytotoxicity, fenretinide + L-threo-sphinganines 3:1 (Example B5); design: key to CI (Combination Index): CI<0.9 synergy, 0.9-1.1 additive, >1.1 antagonistic; details: U-118 MG, 96 h
Method: as §1, §2
Fenretinide and L-threo-sphinganines tested in human Glioblastoma (brain cancer) cell line, U-118.

[3] = tested on: A-2058 melanoma cell line; assay: DIMSCAN cytotoxicity, fenretinide + L-threo-sphinganines 3:1 (Example B11); details: 96 h
Method: as §1, §2
Fenretinide and L-threo-sphinganines tested in human melanoma (skin cancer) cell line, A-2058.

[4] = tested on: A-549 lung adenocarcinoma cell line; assay: DIMSCAN cytotoxicity, fenretinide + L-threo-sphinganines 3:1 (Example B13); details: 96 h
Method: as §1, §2
Fenretinide and L-threo-sphinganines tested in human lung adenocarcinoma (lung cancer) cell line, A-549.

[5] = tested on: MCF-7 breast adenocarcinoma cell line; assay: DIMSCAN cytotoxicity, fenretinide + L-threo-sphinganines 3:1 (Example B14); details: 96 h
Method: as §1, §2
(§3) Fenretinide and L-threo-sphinganines tested in human breast adenocarcinoma (breast cancer) cell lines, MCF-7 and MDA-MB-231.

[6] = tested on: MDA-MB-231 breast adenocarcinoma cell line; assay: as above; details: MDA-MB-231, 20% O2, 96 h
Method: as §1, §2, §3

[7] = tested on: PC-3 prostate adenocarcinoma cell line; assay: DIMSCAN cytotoxicity, fenretinide + L-threo-sphinganines 3:1 (Example B17)
Method: as §1, §2
Fenretinide and L-threo-sphinganines tested in human prostate adenocarcinoma (prostate cancer) cell line, PC-3.

[8] = 4-HPR 1.5 μM + L-threo-sphinganine 0.5 μM
[9] = 4-HPR 3 μM + L-threo-sphinganine 1 μM
[10] = 4-HPR 6 μM + L-threo-sphinganine 2 μM
[11] = 4-HPR 9 μM + L-threo-sphinganine 3 μM

CCCCCCCCCCCCCCCCC[C@H](O)[C@@H](N)CO [C20, (2S,3S)-2-amino-1,3-icosanediol]
CI (Combination Index) [1, 8]: 1.0
Fa (fraction affected) [1, 8]: 0.583
CI (Combination Index) [1, 9]: 1.1
Fa (fraction affected) [1, 9]: 0.867
CI (Combination Index) [1, 10]: 0.9
Fa (fraction affected) [1, 10]: 0.996
CI (Combination Index) [1, 11]: 0.3
Fa (fraction affected) [1, 11]: 1
CI (Combination Index) [2, 8]: 1.8
Fa (fraction affected) [2, 8]: 0.645
CI (Combination Index) [2, 9]: 0.5
Fa (fraction affected) [2, 9]: 0.984
CI (Combination Index) [2, 10]: 0.3
Fa (fraction affected) [2, 10]: 0.998
CI (Combination Index) [2, 11]: 0.3
Fa (fraction affected) [2, 11]: 0.999
CI (Combination Index) [3, 8]: 0.7
Fa (fraction affected) [3, 8]: 0.311
CI (Combination Index) [3, 9]: 1.0
Fa (fraction affected) [3, 9]: 0.742
CI (Combination Index) [3, 10]: 1.7
Fa (fraction affected) [3, 10]: 0.870
CI (Combination Index) [3, 11]: 0.5
Fa (fraction affected) [3, 11]: 1.000
CI (Combination Index) [4, 8]: 2.1
Fa (fraction affected) [4, 8]: 0.000
CI (Combination Index) [4, 9]: 4.1
Fa (fraction affected) [4, 9]: 0.000
CI (Combination Index) [4, 10]: 1.1
Fa (fraction affected) [4, 10]: 0.017
CI (Combination Index) [4, 11]: 1.1
Fa (fraction affected) [4, 11]: 0.499
CI (Combination Index) [5, 8]: 0.8
Fa (fraction affected) [5, 8]: 0.287
CI (Combination Index) [5, 9]: 0.4
Fa (fraction affected) [5, 9]: 0.852
CI (Combination Index) [5, 10]: 0.3
Fa (fraction affected) [5, 10]: 0.971
CI (Combination Index) [5, 11]: 0.1
Fa (fraction affected) [5, 11]: 0.998
CI (Combination Index) [6, 8]: 2.0
Fa (fraction affected) [6, 8]: 0.011
CI (Combination Index) [6, 9]: 1.1
Fa (fraction affected) [6, 9]: 0.190
CI (Combination Index) [6, 10]: 1.3
Fa (fraction affected) [6, 10]: 0.583
CI (Combination Index) [6, 11]: 1.8
Fa (fraction affected) [6, 11]: 0.664
CI [7, 8]: 1.0
Fa [7, 8]: 0.217
CI [7, 9]: 1.1
Fa [7, 9]: 0.393
CI [7, 10]: 1.2
Fa [7, 10]: 0.620
CI [7, 11]: 0.5
Fa [7, 11]: 0.916
